{"source": "patent US20260191845A1", "about": "“PYRIDINE-2-THIOL 1-OXIDE DERIVATIVES AND THEIR USE FOR TREATMENT OF MAMMALIAN INFECTIONS CAUSED BY MYCOBACTERIUM OR FUNGI” (priority 2022, published 2026)", "key": {"M. massiliense 2005-0524": {"system": "M. massiliense 2005-0524", "assay": "REMA MIC90, broad spectrum of microorganisms", "format": "cell-based", "conditions": "Mycobacteroides abscessus, 20050524, M. massiliense 2005-0524, Wild-type, read-out: MIC to Compound 2"}, "[1]": {"system": "M. avium subsp. avium Chester ATCC15769", "assay": "REMA MIC90, broad spectrum of microorganisms", "format": "cell-based", "conditions": "Mycobacterium avium, M. avium subsp. avium Chester ATCC15769, Wild-type, read-out: MIC to Compound 2"}, "M. bolletii 1999-0888": {"system": "M. bolletii 1999-0888", "assay": "REMA MIC90, broad spectrum of microorganisms", "format": "cell-based", "conditions": "Mycobacteroides abscessus, 19990888, M. bolletii 1999-0888, Wild-type, read-out: MIC to Compound 2"}, "[2]": {"system": "Mycobacterium abscessus ATCC 19977", "assay": "REMA MIC90 against M. abscessus ATCC 19977", "format": "cell-based", "conditions": "Mycobacteroides abscessus, ATCC19977", "protocol": "Briefly, serial 2-fold dilutions of drug are prepared in 96-well microtiter plates (Fluoronunc, Thermo Fisher, Waltham, MA, USA) in 100 μL of Middlebrook 7H9 medium (Difco), supplemented with 10% OADC without addition of Tween 80. Then, M. abscessus log-phase cultures were diluted (OD600=0.02) and added in the 96-well microtiter plate. Growth controls containing no compound and sterile controls without inoculum are also included. […] After 1 day of incubation at 37° C., 10 μL of resazurin (0.025% w/v) is added to each well, and bacterial viability is assessed after a further 24 h of incubation using a Fluoroskan™ Microplate Fluorometer (Thermo Fisher Scientific, Waltham, MA, USA; excitation=544 nm, emission=590 nm). […] Results are expressed as the average of at least three independent replicates and presented on the following Table 1."}, "[3]": {"format": "physicochemical", "conditions": "at a temperature of 20±3° C., from accelerated aging at 55±2° C.", "protocol": "The aim of the study is to investigate the physical and chemical properties of a substances at elevated temperature and to establish an experimental expiration date for the substances (saline form vs base form).\n• 5-(ethoxycarbonyl)pyridine-2-thiolate 1-oxide (base form) • sodium 5-(ethoxycarbonyl)pyridine-2-thiolate 1-oxide (compound 2—salt form)\n• Storage temperature: (55±2° C.)\nDouble layer polyethylene bag. The package is placed in a bag made of laminated aluminum foil. Each package is wrapped in wrapping paper. […]"}, "M. bovis BCG Pasteur": {"system": "M. bovis BCG Pasteur", "assay": "microbe, parasite or virus in culture", "format": "cell-based", "conditions": "Mycobacterium tuberculosis variant bovis BCG, read-out: MIC to Compound 2"}, "Candida albicans H8": {"system": "Candida albicans H8", "assay": "Antifungal agar well diffusion assay", "conditions": "20 μL water solution in 4 mm well", "experimental": "The well diffusion test was performed using Casitone agar. The inoculum used was prepared using the Candida or Aspergillus strains from a 24-hour culture on Sabouraud dextrose agar, a suspension was made in a sterile saline solution (0.85%). The turbidity of the suspension was adjusted with a spectrophotometer at 530 nm to obtain a final concentration to match that of a 0.5 McFarland standard (0.5-2.5×10^3). 20 mL of Bacto-casitone were melted, cooled to 55° C. and then inoculated with 1 mL of the organism suspension. The inoculated agar was poured into the assay plate (9 cm in diameter) and allowed to cool down on a leveled surface."}, "M. tuberculosis H37Rv": {"system": "M. tuberculosis H37Rv", "assay": "REMA MIC90, broad spectrum of microorganisms", "format": "cell-based", "conditions": "Mycobacterium tuberculosis, Wild-type, read-out: MIC to Compound 2"}, "[4]": {"system": "Staphylococcus aureus ATCC 25923", "assay": "REMA MIC90, broad spectrum of microorganisms", "format": "cell-based", "conditions": "ATCC25923, read-out: MIC to Compound 2"}, "[5]": {"assay": "Acute toxicity, intragastric administration in mice", "format": "in vivo, C57BL/6 male white mice", "conditions": "per os, doses lower than 300 mg/kg, 14 days observation", "protocol": "Acute and subacute toxicity of compound 2 was experimentally studied for intragastric administration in white mice. […] The compound was solubilized in saline to be administrated to animals.\nExperimental animals: 35 C57BL/6 male white mice, 7 weeks old, weight 20-22 g. The following experimental procedure was used: • administration route of the compound: per os; • number of doses: […]; • dosage: 100-200-250-300-500-600-750 mg/kg; • volume introduced into 0.3 ml/20 g (15 ml/kg); • data recorded: behavior, weight changes, rectal temperature, mortality."}, "M. smegmatis mc2155": {"system": "M. smegmatis mc2155", "assay": "REMA MIC90, broad spectrum of microorganisms", "format": "cell-based", "conditions": "Mycolicibacterium smegmatis, M. smegmatis mc2155, Wild-type, read-out: MIC to Compound 2"}}, "note": "Read-outs that look alike come from different tables or passages of the source."}
{"smiles": "CCOC(=O)c1ccc([S-])[n+]([O-])c1.[Na+]", "note": "[Compound 2, Sodium 5-(ethoxycarbonyl)pyridine-2-thiolate 1-oxide]", "values": [{"measurement": "MIC", "setting": "M. massiliense 2005-0524", "result": 500, "unit": "µg/mL"}, {"measurement": "MIC", "setting": "[1]", "result": 500, "unit": "µg/mL"}, {"measurement": "MIC", "setting": "M. bolletii 1999-0888", "result": 500, "unit": "µg/mL"}, {"measurement": "MIC", "setting": "[2]; MIC90, REMA, Table 1, read-out: MIC in M. abscessus ATCC 19977", "result": 125, "unit": "µg/mL"}, {"measurement": "MIC", "setting": "[2]; MIC90, M. abscessus ATCC 19977, Wild-type, Table 2, read-out: MIC to Compound 2", "result": 250, "unit": "µg/mL"}, {"measurement": "Experimental shelf life", "setting": "[3]", "result": "about 2 years"}, {"measurement": "MIC", "setting": "M. bovis BCG Pasteur", "result": 62.5, "unit": "µg/mL"}, {"measurement": "Inhibition Zone of Test Microorganism", "setting": "Candida albicans H8", "result": 53, "unit": "mm"}, {"measurement": "MIC", "setting": "M. tuberculosis H37Rv", "result": 25, "unit": "µg/mL"}, {"measurement": "MIC", "setting": "[4]", "result": 8000, "unit": "µg/mL"}, {"measurement": "Acute toxicity: animal death", "setting": "[5]", "result": "there were no cases of animal death"}, {"measurement": "Acute toxicity: general state and behavior", "setting": "[5]", "result": "did not cause changes in the general state and behavior of the mice"}, {"measurement": "MIC", "setting": "M. smegmatis mc2155", "result": 1000, "unit": "µg/mL"}]}
